According to patent US9365522B2, “Pyrazole amide derivative” (AMGEN INC., priority 2015, dated 2016):

Target: T1, ligand binding domain of human ROR gamma (Homo sapiens, UniProt P51449)
T1 construct: NM_001001523; expressed in transfected cells; host or cells: HEK293T
T1 sequence (P51449 247-497 isoform P51449-2): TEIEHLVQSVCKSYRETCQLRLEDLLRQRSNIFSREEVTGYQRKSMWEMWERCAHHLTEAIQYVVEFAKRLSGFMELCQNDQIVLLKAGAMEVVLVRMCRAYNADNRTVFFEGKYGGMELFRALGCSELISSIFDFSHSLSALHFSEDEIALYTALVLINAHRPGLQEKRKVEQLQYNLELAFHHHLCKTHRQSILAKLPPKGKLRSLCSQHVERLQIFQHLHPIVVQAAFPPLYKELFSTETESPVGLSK
Experiment: ROR gamma reporter gene assay (GAL4-RORγ LBD luciferase, Dual-Glo)
Format: cell-based
Conditions: HEK293T cells transfected with pM-ROR gamma, 8 concentrations 3.5 nM to 10.5 μM, 24 h incubation
Procedure, shortened: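 Inhibition of RORγ-driven transcription was measured in HEK293T cells expressing a GAL4 fusion of the human RORγ LBD (aa 247-497), with renilla luciferase as internal control. Cells in 10% charcoal-stripped serum received compound (3.5 nM–10.5 μM) for 24 h.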

In the case of CC1(C)CC[C@@H](CN(CC(=O)c2c(Cl)cncc2Cl)C(=O)c2cnn([C@H]3CC[C@H](C(=O)O)CC3)c2C(F)(F)F)O1 (relative stereo) [Example 14, trans-4-(4-((2-(3,5-dichloropyridin-4-yl)-2-oxoethyl)(((S)-5,5-dimethylTHF-2-yl)methyl)carbamoyl)-5-(trifluoromethyl)-1H-pyrazol-1-yl)cyclohexanecarboxylic acid], the “result (pIC50, inhibition of RORγ transcriptional activity)” value was 7.12.

Same assay, conditions: HEK293T cells transfected with pM-ROR gamma, 8 concentrations 3.5 nM to 10.5 μM, 24 h incubation; read-out: result (pIC50, inhibition of RORγ transcriptional activity) (converted)

First: N#C[C@]1(C(=O)O)CC[C@H](n2ncc(C(=O)N(CC(=O)c3c(Cl)cncc3Cl)Cc3ccc(F)cc3)c2C(F)(F)F)CC1 [Example 129, trans-4-(4-((2-(3,5-dichloropyridin-4-yl)-2-oxoethyl)-((4-fluorophenyl)methyl)carbamoyl)-5-(trifluoromethyl)pyrazol-1-yl)-1-cyanocyclohexane-1-carboxylic acid]
Second: O=C(CN(Cc1ccc(F)cc1)C(=O)c1cnn([C@H]2CC[C@@H](C(=O)O)CC2)c1C(F)(F)F)c1c(Cl)cncc1Cl [Example 25, cis-4-(4-((2-(3,5-dichloropyridin-4-yl)-2-oxoethyl)(4-fluorobenzyl)carbamoyl)-5-(trifluoromethyl)-1H-pyrazol-1-yl)cyclohexaneca rboxylic acid]
The IC50 of the first is 33-fold higher: 8.71e+06 pM for the first, 263000 pM for the second.

First: N#Cc1cccc(CN(CC(=O)c2c(Cl)cncc2Cl)C(=O)c2cnn([C@H]3CC[C@H](C(=O)O)CC3)c2C(F)(F)F)c1 [Example 170, trans-4-(4-((3-cyanophenyl)methyl-(2-(3,5-dichloropyridin-4-yl)-2-oxoethyl)carbamoyl)-5-(trifluoromethyl)pyrazol-1-yl)cyclohexane-1-carboxylic acid]
Second: O=C(CN(Cc1ccncc1)C(=O)c1cnn([C@H]2CC[C@H](C(=O)O)CC2)c1C(F)(F)F)c1c(Cl)cncc1Cl [Example 76, trans-4-(4-((2-(3,5-dichloropyridin-4-yl)-2-oxoethyl)(pyridin-4-ylmethyl)carbamoyl)-5-(trifluoromethyl)-1H-pyrazol-1-yl)cyclohexanecarboxylic acid]
The IC50 of the first is 9.6-fold lower: 178000 pM for the first, 1.7e+06 pM for the second.

COc1cccc(Cl)c1C(=O)CN(C(=O)c1cnn([C@H]2CC[C@](C)(C(=O)O)CC2)c1C(F)(F)F)[C@H]1C[C@@H]2[C@H](C1)C2(C)C [Example 232, trans-4-(4-((2-(2-chloro-6-methoxyphenyl)-2-oxoethyl)-((1R,3r,5S)-6,6-dimethyl-3-bicyclo(3.1.0)hexanyl)carbamoyl)-5-(trifluoromethyl)pyrazol-1-yl)-1-methylcyclohexane-1-carboxylic acid] and CC1(C)[C@@H]2C[C@H](N(CC(=O)c3c(Cl)cccc3Cl)C(=O)c3cnn([C@H]4CC[C@](C)(C(=O)O)CC4)c3C3(F)CC3)C[C@@H]21 [Example 404, trans-4-(4-((2-(2,6-dichlorophenyl)-2-oxoethyl)((1R,3r,5S)-6,6-dimethylbicyclo[3.1.0]hexan-3-yl)carbamoyl)-5-(1-fluorocyclopropyl)-1H-pyrazol-1-yl)-1-methylcyclohexanecarboxylic acid] are within 1.5-fold of each other in IC50: 17000 pM for the first, 22400 pM for the second.

Compared with CC1(C)CC(CN(CC(=O)c2c(Cl)cc(Cl)cc2Cl)C(=O)c2cnn([C@H]3CC[C@](C)(C(=O)O)CC3)c2C(F)(F)F)C1 [Example 250, trans-4-(4-((3,3-dimethylcyclobutyl)methyl-(2-oxo-2-(2,4,6-trichlorophenyl)ethyl)carbamoyl)-5-(trifluoromethyl)pyrazol-1-yl)-1-methylcyclohexane-1-carboxylic acid], CC(C)(C)CN(CC(=O)c1c(F)cncc1Cl)C(=O)c1cnn([C@H]2CC[C@](C)(C(=O)O)CC2)c1C(F)(F)F [Example 294, trans-4-(4-((2-(3-chloro-5-fluoropyridin-4-yl)-2-oxoethyl)-(2,2-dimethylpropyl)carbamoyl)-5-(trifluoromethyl)pyrazol-1-yl)-1-methylcyclohexane-1-carboxylic acid] is higher in IC50: < 3470 pM for the first, 49000 pM for the second.

First: COc1cccc(Cl)c1[C@@H](O)CN(CC(C)(C)C)C(=O)c1cnn([C@H]2CC[C@](C)(C(=O)O)CC2)c1C(F)(F)F [Example 356, trans-4-(4-(((2R)-2-(2-chloro-6-methoxyphenyl)-2-hydroxyethyl)-(2,2-dimethylpropyl)carbamoyl)-5-(trifluoromethyl)pyrazol-1-yl)-1-methylcyclohexane-1-carboxylic acid]
Second: CC(C)(C)CN(CCc1c[nH]c2cccc(Cl)c12)C(=O)c1cnn([C@H]2CC[C@](C)(C(=O)O)CC2)c1C(F)(F)F [Example 334, trans-4-(4-(2-(4-chloro-1H-indol-3-yl)ethyl-(2,2-dimethylpropyl)carbamoyl)-5-(trifluoromethyl)pyrazol-1-yl)-1-methylcyclohexane-1-carboxylic acid]
The IC50 of the first is 1.8-fold higher: 102000 pM for the first, 56200 pM for the second.

First: CC(C)(C)[C@H]1C[C@@H](CN(CC(=O)c2c(Cl)cncc2Cl)C(=O)c2cnn([C@H]3CC[C@H](C(=O)O)CC3)c2C(F)(F)F)C1 [Example 126, trans-4-(4-((3-tert-butylcyclobutyl)methyl-(2-(3,5-dichloropyridin-4-yl)-2-oxoethyl)carbamoyl)-5-(trifluoromethyl)pyrazol-1-yl)cyclohexane-1-carboxylic acid]
Second: CC1(CN(CC(=O)c2c(Cl)cncc2Cl)C(=O)c2cnn([C@H]3CC[C@H](C(=O)O)CC3)c2C(F)(F)F)CC1 [Example 31, trans-4-(4-((2-(3,5-dichloropyridin-4-yl)-2-oxoethyl)((1-methylcyclopropyl)methyl)carbamoyl)-5-(trifluorornethyl)-1H-pyrazol-1-yl)cyclohexanecarboxylic acid]
The IC50 of the first is 12-fold higher: 912000 pM for the first, 77600 pM for the second.

Going from Cc1cc(Cl)c(C(=O)CN(C(=O)c2cnn([C@H]3CC[C@](C)(C(=O)O)CC3)c2C)[C@H]2C[C@@H]3[C@H](C2)C3(C)C)c(Cl)c1 [Example 365, trans-4-(4-((2-(2,6-dichloro-4-methylphenyl)-2-oxoethyl)((1R,3r,5S)-6,6-dimethylbicyclo[3.1.0]hexan-3-yl)carbamoyl)-5-methyl-1H-pyrazol-1-yl)-1-methylcyclohexanecarboxylic acid] to CC1(C)[C@@H]2C[C@H](N(CC(=O)c3c(Cl)cncc3Cl)C(=O)c3cnn([C@H]4CC[C@H](C(=O)O)CC4)c3C(F)(F)F)C[C@@H]21 [Example 264, trans-4-(4-((2-(3,5-dichloropyridin-4-yl)-2-oxoethyl)-((1R,3r,5S)-6,6-dimethyl-3-bicyclo[3.1.0]hexanyl)carbamoyl)-5-(trifluoromethyl)pyrazol-1-yl)cyclohexane-1-carboxylic acid], the IC50 falls from 30900 pM to 8130 pM (3.8-fold).

First: O=C(c1cnn([C@H]2CC[C@H](C(=O)O)CC2)c1C(F)(F)F)N(Cc1ccc(F)cc1)CC(F)c1c(Cl)cccc1Cl (stereo partly drawn) [Example 91, trans-4-(4-((2-(2,6-dichlorophenyl)-2-fluoroethyl)(4-fluorobenzyl)carbamoyl) (trifluoromethyl)-1H-pyrazol-1-yl)cyclohexanecarboxylic acid]
Second: O=C1CC[C@@H](CN(CC(=O)c2c(Cl)cncc2Cl)C(=O)c2cnn([C@H]3CC[C@H](C(=O)O)CC3)c2C(F)(F)F)N1 [Example 157, trans-4-(4-((2-(3,5-dichloropyridin-4-yl)-2-oxoethyl)-(((2S)-5-oxopyrrolidin-2-yl)methyl)carbamoyl)-5-(trifluoromethyl)pyrazol-1-yl)cyclohexane-1-carboxylic acid]
The IC50 of the first is lower: 4370 pM for the first, > 1e+07 pM for the second.

Going from O=C(CN(CC12CCC(CC1)O2)C(=O)c1cnn([C@H]2CC[C@H](C(=O)O)CC2)c1C(F)(F)F)c1c(Cl)cncc1Cl [Example 262, trans-4-(4-((2-(3,5-dichloropyridin-4-yl)-2-oxoethyl)-(7-oxabicyclo[2.2.1]heptan-4-ylmethyl)carbamoyl)-5-(trifluoromethyl)pyrazol-1-yl)cyclohexane-1-carboxylic acid] to CC12CCC(CN(CC(=O)c3c(Cl)cncc3Cl)C(=O)c3cnn([C@H]4CC[C@H](C(=O)O)CC4)c3C(F)(F)F)(CC1)O2 [Example 160, trans-4-(4-((2-(3,5-dichloropyridin-4-yl)-2-oxoethyl)-((1-methyl-7-oxabicyclo[2.2.1]heptan-4-yl)methyl)carbamoyl)-5-(trifluoromethyl)pyrazol-1-yl)cyclohexane-1-carboxylic acid], the IC50 falls from 40700 pM to 24500 pM (1.7-fold).

O=C(CN(Cc1cc(F)cc(F)c1)C(=O)c1cnn([C@H]2CC[C@H](C(=O)O)CC2)c1C1CC1)c1c(Cl)cncc1Cl [Example 17, trans-4-(5-cyclopropyl-4-((2-(3,5-dichloropyridin-4-yl)-2-oxoethyl)(3,5-difluorobenzyl)carbamoyl)-1H-pyrazol-1-yl)cyclohexanecarboxylic acid] gave an IC50 of 24500 pM.

Same assay, conditions: result (pIC50, inhibition of RORγ transcriptional activity), HEK293T cells transfected with pM-ROR gamma, 8 concentrations 3.5 nM to 10.5 μM, 24 h incubation

Work on O=C(CN(Cc1cc(F)cc(F)c1)C(=O)c1cnn([C@H]2CC[C@H](C(=O)O)CC2)c1C(F)(F)F)c1c(O)nc(O)nc1O [Example 12, trans-4-(4-((3,5-difluorobenzyl)(2-oxo-2-(2,4,6-trihydroxypyrimidin-5-yl)ethyl)carbamoyl)-5-(trifluoromethyl)-1H-pyrazol-1-yl)cyclohexanecarboxylic acid] yielded an IC50 of 3.72e+06 pM.
